In PubChem BioAssay (NCI):
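In this assay, cells in 96-well plates receive the compound at five concentrations for 48 hours. Endpoints are linearly interpolated between the surrounding concentrations. TGI is the concentration that stops growth completely.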

What was measured:
Assay in all cases: NCI anticancer screen, dose series, 48 h
[1] = test system: 786-0 renal
[2] = test system: A498 renal
[3] = test system: A549 NSCLC
[4] = test system: ACHN renal
[5] = test system: BT-549 breast
[6] = test system: CAKI-1 renal
[7] = test system: CCRF-CEM leukemia
[8] = test system: COLO 205 colon
[9] = test system: DU-145 prostate
[10] = test system: EKVX NSCLC
[11] = test system: HCC-2998 colon
[12] = test system: HCT-116 colon
[13] = test system: HCT-15 colon
[14] = test system: HL-60(TB) leukemia
[15] = test system: HOP-62 NSCLC
[16] = test system: HOP-92 NSCLC
[17] = test system: HS 578T breast
[18] = test system: HT29 colon
[19] = test system: IGROV1 ovarian
[20] = test system: K-562 leukemia
[21] = test system: KM12 colon
[22] = test system: LOX IMVI melanoma
[23] = test system: M14 melanoma
[24] = test system: MCF7 breast
[25] = test system: MDA-MB-231 breast
[26] = test system: MDA-MB-435
[27] = test system: MDA-N
[28] = test system: MOLT-4 leukemia
[29] = test system: NCI-H226 lung
[30] = test system: NCI-H23 lung
[31] = test system: NCI-H460 lung
[32] = test system: NCI-H522 lung
[33] = test system: NCI/ADR-RES ovarian
[34] = test system: OVCAR-4 ovarian
[35] = test system: OVCAR-5 ovarian
[36] = test system: OVCAR-8 ovarian
[37] = test system: PC-3 prostate
[38] = test system: RPMI-8226 leukemia
[39] = test system: RXF 393 renal
[40] = test system: SF-268 CNS
[41] = test system: SF-295 CNS
[42] = test system: SF-539 CNS
[43] = test system: SK-MEL-2 melanoma
[44] = test system: SK-MEL-5 melanoma
[45] = test system: SK-OV-3 ovarian
[46] = test system: SN12C renal
[47] = test system: SNB-19 CNS
[48] = test system: SNB-75 CNS
[49] = test system: SW-620 colon
[50] = test system: T-47D breast
[51] = test system: TK-10 renal
[52] = test system: U251 CNS
[53] = test system: UACC-257 melanoma
[54] = test system: UACC-62 melanoma
[55] = test system: UO-31 renal
[56] = test system: MALME-3M melanoma
[57] = test system: OVCAR-3 ovarian
[58] = test system: SK-MEL-28 melanoma

Question: For Cc1cc(O)c(/C=N/c2nc(-c3ccc([N+](=O)[O-])cc3)cs2)c(=O)o1, which TGI [1] is on record?
Answer: > 100 µM

Question: And the TGI [2]?
Answer: > 100 µM

Question: And the TGI [3]?
Answer: > 100 µM

Question: And the TGI [4]?
Answer: > 100 µM

Question: And the TGI [5]?
Answer: > 100 µM

Question: And the TGI [6]?
Answer: > 100 µM

Question: And the TGI [7]?
Answer: > 100 µM

Question: What about the TGI [8] of the same molecule?
Answer: > 100 µM

Question: And the TGI [9]?
Answer: > 100 µM

Question: And the TGI [10]?
Answer: > 100 µM

Question: And the TGI [11]?
Answer: > 100 µM

Question: What about the TGI [12] of the same molecule?
Answer: > 100 µM

Question: And the TGI [13]?
Answer: > 100 µM

Question: What about the TGI [14] of the same molecule?
Answer: 75 µM

Question: What about the TGI [15] of the same molecule?
Answer: > 100 µM

Question: And the TGI [16]?
Answer: > 100 µM

Question: What about the TGI [17] of the same molecule?
Answer: > 100 µM

Question: And the TGI [18]?
Answer: > 100 µM

Question: What about the TGI [19] of the same molecule?
Answer: > 100 µM

Question: And the TGI [20]?
Answer: > 100 µM

Question: What about the TGI [21] of the same molecule?
Answer: > 100 µM

Question: And the TGI [22]?
Answer: > 100 µM

Question: What about the TGI [23] of the same molecule?
Answer: > 100 µM

Question: And the TGI [24]?
Answer: > 100 µM

Question: What about the TGI [25] of the same molecule?
Answer: > 100 µM

Question: And the TGI [26]?
Answer: > 100 µM

Question: What about the TGI [27] of the same molecule?
Answer: > 100 µM

Question: And the TGI [28]?
Answer: > 100 µM

Question: What about the TGI [29] of the same molecule?
Answer: > 100 µM

Question: What about the TGI [30] of the same molecule?
Answer: > 100 µM

Question: What about the TGI [31] of the same molecule?
Answer: > 100 µM

Question: What about the TGI [32] of the same molecule?
Answer: > 100 µM

Question: What about the TGI [33] of the same molecule?
Answer: > 100 µM

Question: What about the TGI [34] of the same molecule?
Answer: > 100 µM

Question: What about the TGI [35] of the same molecule?
Answer: > 100 µM

Question: And the TGI [36]?
Answer: > 100 µM

Question: What about the TGI [37] of the same molecule?
Answer: > 100 µM

Question: What about the TGI [38] of the same molecule?
Answer: > 100 µM

Question: And the TGI [39]?
Answer: > 100 µM

Question: And the TGI [40]?
Answer: > 100 µM

Question: And the TGI [41]?
Answer: > 100 µM

Question: What about the TGI [42] of the same molecule?
Answer: > 100 µM

Question: What about the TGI [43] of the same molecule?
Answer: > 100 µM

Question: What about the TGI [44] of the same molecule?
Answer: > 100 µM

Question: And the TGI [45]?
Answer: > 100 µM

Question: What about the TGI [46] of the same molecule?
Answer: > 100 µM

Question: What about the TGI [47] of the same molecule?
Answer: > 100 µM

Question: What about the TGI [48] of the same molecule?
Answer: > 100 µM

Question: What about the TGI [49] of the same molecule?
Answer: > 100 µM

Question: What about the TGI [50] of the same molecule?
Answer: > 100 µM

Question: And the TGI [51]?
Answer: > 100 µM

Question: What about the TGI [52] of the same molecule?
Answer: > 100 µM

Question: What about the TGI [53] of the same molecule?
Answer: > 100 µM

Question: What about the TGI [54] of the same molecule?
Answer: > 100 µM

Question: What about the TGI [55] of the same molecule?
Answer: > 100 µM

Question: With CC1=NN(C(=O)CC(=O)N(C(=O)c2ccccc2)c2ccc(Cl)cc2)C(=O)C1N=Nc1ccc([N+](=O)[O-])cc1 (configuration not stated) as the molecule, how does the TGI [1] read?
Answer: > 10 µM

Question: And the TGI [2]?
Answer: > 10 µM

Question: And the TGI [3]?
Answer: > 10 µM

Question: And the TGI [4]?
Answer: > 10 µM

Question: What about the TGI [5] of the same molecule?
Answer: > 10 µM

Question: What about the TGI [6] of the same molecule?
Answer: > 10 µM

Question: And the TGI [7]?
Answer: > 10 µM

Question: What about the TGI [8] of the same molecule?
Answer: > 10 µM

Question: And the TGI [9]?
Answer: > 10 µM

Question: And the TGI [10]?
Answer: > 10 µM

Question: What about the TGI [11] of the same molecule?
Answer: > 10 µM

Question: And the TGI [12]?
Answer: > 10 µM

Question: And the TGI [13]?
Answer: > 10 µM

Question: And the TGI [14]?
Answer: > 10 µM

Question: And the TGI [15]?
Answer: > 10 µM

Question: And the TGI [16]?
Answer: > 10 µM

Question: And the TGI [17]?
Answer: > 10 µM

Question: And the TGI [18]?
Answer: > 10 µM

Question: What about the TGI [19] of the same molecule?
Answer: > 10 µM

Question: What about the TGI [20] of the same molecule?
Answer: > 10 µM

Question: What about the TGI [21] of the same molecule?
Answer: > 10 µM

Question: And the TGI [22]?
Answer: > 10 µM

Question: And the TGI [56]?
Answer: > 10 µM

Question: And the TGI [24]?
Answer: > 10 µM

Question: And the TGI [25]?
Answer: > 10 µM

Question: And the TGI [26]?
Answer: > 10 µM

Question: What about the TGI [27] of the same molecule?
Answer: > 10 µM

Question: What about the TGI [28] of the same molecule?
Answer: > 10 µM

Question: And the TGI [29]?
Answer: > 10 µM

Question: And the TGI [30]?
Answer: > 10 µM

Question: And the TGI [31]?
Answer: > 10 µM

Question: And the TGI [32]?
Answer: > 10 µM

Question: And the TGI [33]?
Answer: > 10 µM

Question: What about the TGI [57] of the same molecule?
Answer: > 10 µM

Question: And the TGI [34]?
Answer: > 10 µM

Question: What about the TGI [35] of the same molecule?
Answer: > 10 µM

Question: What about the TGI [36] of the same molecule?
Answer: > 10 µM

Question: What about the TGI [37] of the same molecule?
Answer: > 10 µM

Question: And the TGI [38]?
Answer: > 10 µM

Question: And the TGI [39]?
Answer: > 10 µM

Question: What about the TGI [40] of the same molecule?
Answer: > 10 µM

Question: What about the TGI [41] of the same molecule?
Answer: > 10 µM

Question: And the TGI [42]?
Answer: > 10 µM

Question: And the TGI [43]?
Answer: > 10 µM

Question: What about the TGI [58] of the same molecule?
Answer: > 10 µM

Question: What about the TGI [44] of the same molecule?
Answer: > 10 µM

Question: What about the TGI [45] of the same molecule?
Answer: > 10 µM

Question: And the TGI [46]?
Answer: > 10 µM

Question: And the TGI [47]?
Answer: > 10 µM

Question: And the TGI [48]?
Answer: > 10 µM

Question: What about the TGI [49] of the same molecule?
Answer: > 10 µM

Question: And the TGI [50]?
Answer: > 10 µM

Question: And the TGI [51]?
Answer: > 10 µM

Question: And the TGI [52]?
Answer: > 10 µM

Question: And the TGI [53]?
Answer: > 10 µM

Question: What about the TGI [54] of the same molecule?
Answer: > 10 µM

Question: What about the TGI [55] of the same molecule?
Answer: > 10 µM
